From patent publication US11712434B2, “Compound having anti-cancer effect, and preparation method therefor and use thereof” (3D MEDICINES (BEIJING) CO., LTD., priority 2016, dated 2023)
Values belong to the molecule of their own block, whether it stands above or below them.

Experiments:
Assay in all cases: Cell proliferation assay (Alamar Blue)
Type in all cases: cell-based
T.T = T.T tumor cell line, 6 days culture
How it was run: (§1)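 Six-day continuous exposure of log-phase cells to a 9-point compound series (3.16-fold steps from 100 or 30 μM). Residual viability was read by AlamarBlue fluorescence at 560/590 nm. IC50 came from four-parameter curve fitting.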

NCI-H526 = NCI-H526 tumor cell line, 6 days culture
How it was run: as §1

JHH6 = JHH6 liver cancer cell line, 6 days culture
How it was run: as §1

SNU398 = SNU398 liver cancer cell line, 6 days culture
How it was run: as §1

SK-HEP-1 = SK-HEP-1 liver cancer cell line, 6 days culture
How it was run: as §1

HUH7 = HUH7 liver cancer cell line, 6 days culture
How it was run: as §1

Alexander cells = Alexander cells liver cancer cell line, 6 days culture
How it was run: as §1

NCI-H716 = NCI-H716 tumor cell line, 6 days culture
How it was run: as §1

SNU886 = SNU886 liver cancer cell line, 6 days culture
How it was run: as §1

TE-15 = TE-15 tumor cell line, 6 days culture
How it was run: as §1

SNU449 = SNU449 liver cancer cell line, 6 days culture
How it was run: as §1

TE-6 = TE-6 tumor cell line, 6 days culture
How it was run: as §1

22RV1 = 22RV1 tumor cell line, 6 days culture
How it was run: as §1

K562 = K562 tumor cell line, 6 days culture
How it was run: as §1

HUH1 = HUH1 liver cancer cell line, 6 days culture
How it was run: as §1

HLE = HLE liver cancer cell line, 6 days culture
How it was run: as §1

HT1080 = HT1080 tumor cell line, 6 days culture
How it was run: as §1

HT55 = HT55 tumor cell line, 6 days culture
How it was run: as §1

MDA-MB-435S = MDA-MB-435S tumor cell line, 6 days culture
How it was run: as §1

LC-2-ad = LC-2-ad tumor cell line, 6 days culture
How it was run: as §1

MDA-MB-231 = MDA-MB-231 tumor cell line, 6 days culture
How it was run: as §1

SNU739 = SNU739 liver cancer cell line, 6 days culture
How it was run: as §1

AN3CA = AN3CA tumor cell line, 6 days culture
How it was run: as §1

MG63 = MG63 tumor cell line, 6 days culture
How it was run: as §1

SNU354 = SNU354 liver cancer cell line, 6 days culture
How it was run: as §1

Hep3B2.1-7 = Hep3B2.1-7 liver cancer cell line, 6 days culture
How it was run: as §1

HLF = HLF liver cancer cell line, 6 days culture
How it was run: as §1

IC50 (NCI-H526; Homo sapiens, 144 h): > 100 µM | IC50 (SNU398; Homo sapiens, SNU-398, 144 h): > 100 µM | IC50 (SK-HEP-1; Homo sapiens, SK-HEP1, 144 h): > 100 µM | IC50 (HUH7; Homo sapiens, Huh-7, 144 h): > 100 µM | IC50 (NCI-H716; Homo sapiens, 144 h): > 100 µM | IC50 (SNU886; SNU-886, 144 h): > 100 µM | IC50 (SNU449; Homo sapiens, SNU-449, 144 h): > 100 µM | IC50 (22RV1; Homo sapiens, 144 h): > 100 µM | IC50 (K562; Homo sapiens, 144 h): > 100 µM | IC50 (HUH1; Homo sapiens, HuH-1, 144 h): > 100 µM | IC50 (HT1080; Homo sapiens, HT-1080, 144 h): > 100 µM | IC50 (MDA-MB-435S; Homo sapiens, 144 h): > 100 µM | IC50 (MDA-MB-231; Homo sapiens, 144 h): > 100 µM | IC50 (SNU739; SNU-739, 144 h): > 100 µM | IC50 (SNU354; Homo sapiens, SNU-354, 144 h): > 100 µM | IC50 (Hep3B2.1-7; 144 h): > 100 µM
Structure (SMILES): Cc1ccc(F)c(NC(=O)Nc2ccc(-c3cccc4[nH]nc(NC(=O)CCCCCNC(=O)C[C@H](N)C(=O)N[C@@H](CCC(=O)N[C@@H](CCC(=O)N[C@@H](CCC(=O)N[C@@H](CCC(=O)O)C(=O)O)C(=O)O)C(=O)O)C(=O)O)c34)cc2)c1 [Compound 5]
IC50 (T.T; Homo sapiens, TT, 144 h): > 100 µM | IC50 (JHH6; 144 h): > 100 µM | IC50 (Alexander cells; 144 h): > 100 µM | IC50 (TE-15; Homo sapiens, 144 h): > 100 µM | IC50 (TE-6; Homo sapiens, 144 h): > 100 µM | IC50 (HLE; Homo sapiens, 144 h): > 100 µM | IC50 (HT55; Homo sapiens, 144 h): > 100 µM | IC50 (LC-2-ad; Homo sapiens, 144 h): > 100 µM | IC50 (AN3CA; Homo sapiens, AN3-CA, 144 h): 41.4 µM | IC50 (MG63; Homo sapiens, MG-63, 144 h): > 100 µM | IC50 (HLF; 144 h): > 100 µM

IC50 (NCI-H526): > 100 µM | IC50 (SNU398): > 100 µM | IC50 (SK-HEP-1): > 100 µM | IC50 (HUH7): 42.2 µM | IC50 (NCI-H716): 41.6 µM | IC50 (SNU886): 75.2 µM | IC50 (SNU449): > 100 µM | IC50 (22RV1): > 100 µM | IC50 (K562): > 100 µM | IC50 (HUH1): > 100 µM | IC50 (HT1080): > 100 µM | IC50 (MDA-MB-435S): > 100 µM | IC50 (MDA-MB-231): > 100 µM | IC50 (SNU739): > 100 µM | IC50 (SNU354): > 100 µM | IC50 (Hep3B2.1-7): 40.4 µM
Structure (SMILES): Cc1ccc(F)c(NC(=O)Nc2ccc(-c3cccc4[nH]nc(NC(=O)CCCCCCCCCCCNC(=O)C[C@H](N)C(=O)N[C@@H](CCC(=O)O)C(=O)O)c34)cc2)c1 [Compound 7]
IC50 (T.T): > 100 µM | IC50 (JHH6): > 100 µM | IC50 (Alexander cells): > 100 µM | IC50 (TE-15): > 100 µM | IC50 (TE-6): > 100 µM | IC50 (HLE): 88.3 µM | IC50 (HT55): > 100 µM | IC50 (LC-2-ad): 46.4 µM | IC50 (AN3CA): 3.84 µM | IC50 (MG63): > 100 µM | IC50 (HLF): 72.6 µM

IC50 (NCI-H526; Homo sapiens, 144 h): > 100 µM | IC50 (SNU398; Homo sapiens, SNU-398, 144 h): > 100 µM | IC50 (SK-HEP-1; Homo sapiens, SK-HEP1, 144 h): > 100 µM | IC50 (HUH7; Homo sapiens, Huh-7, 144 h): 65.4 µM | IC50 (NCI-H716; Homo sapiens, 144 h): 44.9 µM | IC50 (SNU886; SNU-886, 144 h): > 100 µM | IC50 (SNU449; Homo sapiens, SNU-449, 144 h): > 100 µM | IC50 (22RV1; Homo sapiens, 144 h): > 100 µM | IC50 (K562; Homo sapiens, 144 h): > 100 µM | IC50 (HUH1; Homo sapiens, HuH-1, 144 h): > 100 µM | IC50 (HT1080; Homo sapiens, HT-1080, 144 h): > 100 µM | IC50 (MDA-MB-435S; Homo sapiens, 144 h): > 100 µM | IC50 (MDA-MB-231; Homo sapiens, 144 h): > 100 µM | IC50 (SNU739; SNU-739, 144 h): > 100 µM | IC50 (SNU354; Homo sapiens, SNU-354, 144 h): > 100 µM | IC50 (Hep3B2.1-7; 144 h): 80.2 µM
Structure (SMILES): Cc1ccc(F)c(NC(=O)Nc2ccc(-c3cccc4[nH]nc(NC(=O)CCCCCCCCCCCNC(=O)C[C@H](N)C(=O)N[C@@H](CCC(=O)N[C@@H](CCC(=O)N[C@@H](CCC(=O)N[C@@H](CCC(=O)O)C(=O)O)C(=O)O)C(=O)O)C(=O)O)c34)cc2)c1 [Compound 8]
IC50 (T.T; Homo sapiens, TT, 144 h): > 100 µM | IC50 (JHH6; 144 h): > 100 µM | IC50 (Alexander cells; 144 h): > 100 µM | IC50 (TE-15; Homo sapiens, 144 h): > 100 µM | IC50 (TE-6; Homo sapiens, 144 h): > 100 µM | IC50 (HLE; Homo sapiens, 144 h): > 100 µM | IC50 (HT55; Homo sapiens, 144 h): > 100 µM | IC50 (LC-2-ad; Homo sapiens, 144 h): 82.4 µM | IC50 (AN3CA; Homo sapiens, AN3-CA, 144 h): 5.68 µM | IC50 (MG63; Homo sapiens, MG-63, 144 h): > 100 µM | IC50 (HLF; 144 h): > 100 µM

Structure (SMILES): Cc1ccc(F)c(NC(=O)Nc2ccc(-c3cccc4[nH]nc(NC(=O)CCCCCCCCCCCNC(=O)C[C@H](N)C(=O)N[C@@H](CCC(=O)N[C@@H](CCC(=O)N[C@@H](CCC(=O)N[C@@H](CCC(=O)N[C@@H](CCC(=O)N[C@@H](CCC(=O)N[C@@H](CCC(=O)N[C@@H](CCC(=O)N[C@@H](CCC(=O)O)C(=O)O)C(=O)O)C(=O)O)C(=O)O)C(=O)O)C(=O)O)C(=O)O)C(=O)O)C(=O)O)c34)cc2)c1 [Compound 9]
IC50 (T.T): > 100 µM | IC50 (NCI-H526): > 100 µM | IC50 (JHH6): > 100 µM | IC50 (SNU398): > 100 µM | IC50 (SK-HEP-1): > 100 µM | IC50 (HUH7): 88.5 µM | IC50 (Alexander cells): > 100 µM | IC50 (NCI-H716): 77.2 µM | IC50 (SNU886): > 100 µM | IC50 (TE-15): > 100 µM | IC50 (SNU449): > 100 µM | IC50 (TE-6): > 100 µM | IC50 (22RV1): > 100 µM | IC50 (K562): > 100 µM | IC50 (HUH1): > 100 µM | IC50 (HLE): > 100 µM | IC50 (HT1080): > 100 µM | IC50 (HT55): > 100 µM | IC50 (MDA-MB-435S): > 100 µM | IC50 (LC-2-ad): > 100 µM | IC50 (MDA-MB-231): > 100 µM | IC50 (SNU739): > 100 µM | IC50 (AN3CA): 10.3 µM | IC50 (MG63): > 100 µM | IC50 (SNU354): > 100 µM | IC50 (Hep3B2.1-7): > 100 µM | IC50 (HLF): > 100 µM
